In publication PMC9545129 (Chemmedchem, 2022):

What was measured:
[1] = system: LAT1; settings: cited from earlier work
[2] = target: LAT1 (SLC7A5) (Homo sapiens, UniProt Q01650); assay: [3H]-L-leucine efflux assay in preloaded HT-29 cells; format: cell-based; settings: concentration not stated
Chain of LAT1 (SLC7A5) (Q01650 whole entry): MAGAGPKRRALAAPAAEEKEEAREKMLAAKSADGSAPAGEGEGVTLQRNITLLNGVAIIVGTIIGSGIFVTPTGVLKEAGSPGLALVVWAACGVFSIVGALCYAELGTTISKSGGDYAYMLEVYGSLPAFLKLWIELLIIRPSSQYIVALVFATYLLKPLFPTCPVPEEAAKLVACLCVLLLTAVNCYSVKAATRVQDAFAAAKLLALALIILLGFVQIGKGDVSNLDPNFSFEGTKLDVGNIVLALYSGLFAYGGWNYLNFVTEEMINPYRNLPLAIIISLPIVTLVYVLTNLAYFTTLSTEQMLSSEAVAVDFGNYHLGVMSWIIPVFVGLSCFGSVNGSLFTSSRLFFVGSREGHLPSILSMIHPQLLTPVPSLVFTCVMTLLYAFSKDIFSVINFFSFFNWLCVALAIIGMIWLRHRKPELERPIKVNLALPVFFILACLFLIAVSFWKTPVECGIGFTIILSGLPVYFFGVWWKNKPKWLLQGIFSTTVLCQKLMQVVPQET
Chain of LAT1 (SLC7A5) (P08195 102-630 partner): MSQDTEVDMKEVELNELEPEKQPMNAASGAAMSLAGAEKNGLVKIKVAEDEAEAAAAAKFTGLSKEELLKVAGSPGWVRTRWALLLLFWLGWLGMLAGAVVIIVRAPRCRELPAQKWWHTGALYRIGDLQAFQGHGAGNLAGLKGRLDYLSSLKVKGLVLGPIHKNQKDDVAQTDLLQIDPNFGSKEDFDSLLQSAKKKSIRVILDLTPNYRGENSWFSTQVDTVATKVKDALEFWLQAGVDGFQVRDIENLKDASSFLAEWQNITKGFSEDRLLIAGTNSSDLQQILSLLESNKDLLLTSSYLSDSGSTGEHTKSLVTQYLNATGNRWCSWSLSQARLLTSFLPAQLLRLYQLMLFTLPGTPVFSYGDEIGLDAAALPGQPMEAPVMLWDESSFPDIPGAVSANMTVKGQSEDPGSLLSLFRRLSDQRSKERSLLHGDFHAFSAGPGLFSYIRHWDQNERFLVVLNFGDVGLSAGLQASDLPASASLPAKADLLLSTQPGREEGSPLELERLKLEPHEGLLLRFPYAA

Row | [3H]-L-leucine efflux from preloaded HT-29 cells / substrate for LAT1-mediated transport [2] | SMILES | LAT1 substrate properties [1]
1 |  | N[C@@H](Cc1c[nH]c2ccc(OCCF)cc12)C(=O)O [5‐(2‐fluoroethoxy)‐L‐tryptophan] | exhibit LAT1 substrate properties
2 | elicited clear [^3H]‐L‐leucine efflux | N[C@@H](Cc1c[nH]c2ccccc12)C(=O)O [L‐Trp, L‐tryptophan] | 
